Counter-ions that a name gives are not always drawn.
Tests used:
[1] = tested on: loperamide-induced experimental constipation; test: Oro-cecal transit time (OCT), sulfasalazine/sulfapyridine method, loperamide-induced experimental constipation; format: in vivo, human
Protocol: (§1) The clinical study was performed in 15 German white subjects (11 males, 4 females, age 20-34 years, body mass index 20.3-27.0 kg/ m^2). All subjects were in good health as confirmed by medical histories, physical examination, routine clinical-chemical and hematologic screenings and 12-lead ECG. Three female subjects took hormonal contraceptives regularly and one subject took 300 mg ibuprofen to treat headache 4 days before the administration of study medication. Three subjects were smokers of less than 10 cigarettes per day. 14 subjects drank alcohol occasionally. All were negative in the pre-study screenings for alcohol, drugs, hepatitis-B-virus (HBV) and hepatitis-C-virus (HCV) and human immunodeficiency virus (HIV). Before administration of the study medication, female subjects were screened to be not pregnant and to apply a safe method of contraception. […] All participants provided informed written consent before inclusion into the study. The study was approved by the Independent Ethics Committee of the University Medicine Greifswald and by the German Federal Institute for Drugs and Medical Devices (BfArM) and was registered by EudraCT (2009-014357-32) and ClinicalTrials.gov (NCT01596777).
(§2) Pharmacokinetics of methylnaltrexone and its effects on loperamid-induced experimental constipation were evaluated in a randomized, controlled, five-period, cross-over study with 7 days wash-out between the study periods. […] The time of methylnaltrexone administration was defined to be time zero. For control of intestinal transit times in absence of loperamide and methylnaltrexone, 200 ml of pure apple juice and a methylnaltrexone placebo capsule were given at the respective times (Control). […] Oro-cecal transit time (OCT) was assessed using the sulfasalazine/sulfapyridine method. For that, 500 mg immediate-release sulfasalazine (Azulfidine®, Pharmacia, Germany) were swallowed with 200 ml table water 2 h after administration of the respective methylnaltrexone study medication to avoid competitive interactions during absorption. The time of first appearance of sulfapyridine in serum was defined to be the OCT (cut-off: 100 μg/ml serum). Whole gut transit time (WGT) was evaluated using a radio-opaque marker method. For that, Colon Transit' capsules (Medical Instruments Corporation GmbH, Herford, Germany) were swallowed 24, 12 and 1 h before time zero using the 200 ml apple juice for loperamide dosing. Each capsule contains 10 radio-opaque markers of identical shape (e.g. triangles). A Colon Transit™ batch consists of capsules with markers of different shape (e.g. triangles, circles, rings etc.). Our subjects were willing and compliant for sampling stool in single portions immediately after feeling urge without suppressing defecation using tightly closable containers. Then, the number of radio-opaque markers with identical shape was counted in the stool portions after X-ray imaging (Philips Optimus, Philips Healthcare, Hamburg, Germany) using the Agfa PACS Workstation Impact-Version 5.2 (Agfa-Healthcare, Cologne, Germany). From the time of administration of the 3×10 radio-opaque markers (3 Colon Transit™ capsules) and the time of their appearance in different stool portions could be reliably concluded on WGT as described below. Colon transit time (CTT) was derived from the difference of WGT and OCT.
For supervised pretreatment with loperamide and Colon Transit™ (mouth checking) and for providing stool samples, the subjects visited the study unit. […]

[2] = tested on: loperamide-induced experimental constipation; test: Whole gut transit time (WGT), radio-opaque marker method, loperamide-induced experimental constipation; format: in vivo, human
Protocol: as §1, with “All” for “The clinical study was performed in 15 German white subjects (11 males, 4 females, age 20-34 years, body mass index 20.3-27.0 kg/ m^2). All”, “study.” for “study. The study was approved by the Independent Ethics Committee of the University Medicine Greifswald and by the German Federal Institute for Drugs and Medical Devices (BfArM) and was registered by EudraCT (2009-014357-32) and ClinicalTrials.gov (NCT01596777).”
as §2, with “Our subjects were willing and compliant for sampling stool in single portions immediately after feeling urge without suppressing defecation using tightly closable containers.” left out
Intestinal transit times: Oro-cecal transit time (OCT) was defined as the time span between oral administration of sulfasalazine (500 mg immediate-release tablet) and the appearance of its metabolite sulfapyridine in serum (cut-off=100 μg/ml) which is generated in the cecum by bacterial azo-reduction. Whole-gut transit time (WGT) was assessed by counting the radio-opaque markers with different shapes (Colon Transit™) in the feces according to formula (1) : […]
with δ1-3 as derived by formula (2):
[formula] • δt =mouth to stool transit time of markers type 1, 2, 3 • xi=number of markers type 1, 2, 3 counted at time ti • n=total number of stools

[3] = tested on: loperamide-induced experimental constipation; test: Colon transit time (CTT), difference of WGT and OCT, loperamide-induced experimental constipation; format: in vivo, human; conditions: for colon transit time after pre-treatment with loperamide: all 15 subjects
Protocol: as §2
The CTT was evaluated from the difference of WGT and OCT.

[4] = cited from earlier work
[5] = 12 LOP-responders, Control versus LOP
[6] = 12 LOP-responders, Control versus LOP, range
[7] = mean ± SD, 12 LOP-responders, loperamide 4 mg 24, 12, 1 h before and 12 h after placebo capsules

Structure (SMILES): CN(C)C(=O)C(CCN1CCC(O)(c2ccc(Cl)cc2)CC1)(c1ccccc1)c1ccccc1 [LOP, loperamide hydrochloride]
- prolongation of the OCT (mean ± SD) [1, 5]: 3.08 ± 3.30 h
- prolongation of the OCT (range) [1, 6]: 0.50 to 10.5 h
- OCT after pre-treatment with loperamide (mean ± SD) ([1]; all 15 subjects): 7.4 ± 3.7 h
- OCT after pre-treatment with loperamide (range) ([1]; all 15 subjects, range): 4.0 to 14.0 h
- OCT [1, 7]: 7.00 ± 3.55 h
- WGT extended by (mean ± SD) [2, 5]: 37.8 ± 19.1 h
- WGT extended by (range) [2, 6]: 20.6 to 74.1 h
- WGT after pre-treatment with loperamide (mean ± SD) ([2]; all 15 subjects): 73.4 ± 19.9 h
- WGT elevation versus Control ([2]; all 15 subjects): about 1.8 fold
- WGT after pre-treatment with loperamide (range) ([2]; all 15 subjects, range): 45.9 to 114 h
- WGT [2, 7]: 77.3 ± 19.6 h
- prolongation of the CTT (mean ± SD) [3, 5]: 34.8 ± 18.3 h
- prolongation of the CTT (range) [3, 6]: 18.3 to 73.6 h
- colon transit time after pre-treatment with loperamide [3]: 66.0 ± 20.9 h
- colon transit time after pre-treatment with loperamide ([3]; range): 33.9 to 110 h
- CTT [3, 7]: 70.3 ± 19.4 h

Structure (SMILES): C[N@+]1(CC2CC2)CC[C@]23c4c5ccc(O)c4O[C@H]2C(=O)CC[C@@]3(O)[C@H]1C5 [methylnaltrexone, N-methylnaltrexone bromide]
- time of peak concentrations ([4]; following subcutaneous administration): approximately 0.5 hours
- crossing of the human blood-brain barrier ([4]; in vivo): does not cross
- eliminated without being metabolised ([4]; in vivo): 85 % of the administered dose
- proportion that binds to plasma proteins ([4]; in vivo): 11-15%
- steady-state volume of distribution ([4]; in vivo): 1.1 L/kg
- terminal half-life ([4]; in vivo): about 8 hours
- Accumulation ([4]; intravenous administration every 6 hours): has not been observed
- excreted in urine ([4]; share of the dose): Approximately half of the dose

Reference: US20160256452A1 (Develco Pharma Schweiz AG, priority 2015, published 2016)
